System: NOMO1
Assay: cell viability relative to DMSO control; higher = less cytotoxic
Conditions: 48 h
In short: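 Cells were incubated for 48 h at 37°C before CellTiter-Glo One luminescence was read. The cells were NOMO1 or SEM (500 cells/well) or P12-Ichikawa (1000 cells/well) leukemia cells, adapted for at least four passages in each medium and seeded in 1536-well plates (5 μl). Dosing used library compounds in DMSO applied by pin over 11 threefold points, 47 μM to 0.79 nM. Viability is the per-plate percentage of DMSO wells, with cell-free wells as background.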

[1] = HPLM + 10% dialyzed FBS, 0.000781 µM
[2] = HPLM + 10% dialyzed FBS, 0.00234 µM
[3] = HPLM + 10% dialyzed FBS, 0.00702 µM
[4] = HPLM + 10% dialyzed FBS, 0.0211 µM
[5] = HPLM + 10% dialyzed FBS, 0.0632 µM
[6] = HPLM + 10% dialyzed FBS, 0.19 µM
[7] = HPLM + 10% dialyzed FBS, 0.569 µM
[8] = HPLM + 10% dialyzed FBS, 1.71 µM
[9] = HPLM + 10% dialyzed FBS, 5.12 µM
[10] = HPLM + 10% dialyzed FBS, 15.4 µM
[11] = HPLM + 10% dialyzed FBS, 46.1 µM
[12] = RPMI 5 mM glucose + 10% FBS, 0.000781 µM
[13] = RPMI 5 mM glucose + 10% FBS, 0.00234 µM
[14] = RPMI 5 mM glucose + 10% FBS, 0.00702 µM
[15] = RPMI 5 mM glucose + 10% FBS, 0.0211 µM
[16] = RPMI 5 mM glucose + 10% FBS, 0.0632 µM
[17] = RPMI 5 mM glucose + 10% FBS, 0.19 µM
[18] = RPMI 5 mM glucose + 10% FBS, 0.569 µM
[19] = RPMI 5 mM glucose + 10% FBS, 1.71 µM
[20] = RPMI 5 mM glucose + 10% FBS, 5.12 µM
[21] = RPMI 5 mM glucose + 10% FBS, 15.4 µM
[22] = RPMI 5 mM glucose + 10% FBS, 46.1 µM
[23] = RPMI 5 mM glucose + 10% dialyzed FBS, 0.000781 µM
[24] = RPMI 5 mM glucose + 10% dialyzed FBS, 0.00234 µM
[25] = RPMI 5 mM glucose + 10% dialyzed FBS, 0.00702 µM
[26] = RPMI 5 mM glucose + 10% dialyzed FBS, 0.0211 µM
[27] = RPMI 5 mM glucose + 10% dialyzed FBS, 0.0632 µM
[28] = RPMI 5 mM glucose + 10% dialyzed FBS, 0.19 µM
[29] = RPMI 5 mM glucose + 10% dialyzed FBS, 0.569 µM
[30] = RPMI 5 mM glucose + 10% dialyzed FBS, 1.71 µM
[31] = RPMI 5 mM glucose + 10% dialyzed FBS, 5.12 µM
[32] = RPMI 5 mM glucose + 10% dialyzed FBS, 15.4 µM
[33] = RPMI 5 mM glucose + 10% dialyzed FBS, 46.1 µM

SMILES | cell viability [1] [%] | cell viability [2] [%] | cell viability [3] [%] | cell viability [4] [%] | cell viability [5] [%] | cell viability [6] [%] | cell viability [7] [%] | cell viability [8] [%] | cell viability [9] [%] | cell viability [10] [%] | cell viability [11] [%] | cell viability [12] [%] | cell viability [13] [%] | cell viability [14] [%] | cell viability [15] [%] | cell viability [16] [%] | cell viability [17] [%] | cell viability [18] [%] | cell viability [19] [%] | cell viability [20] [%] | cell viability [21] [%] | cell viability [22] [%] | cell viability [23] [%] | cell viability [24] [%] | cell viability [25] [%] | cell viability [26] [%] | cell viability [27] [%] | cell viability [28] [%] | cell viability [29] [%] | cell viability [30] [%] | cell viability [31] [%] | cell viability [32] [%] | cell viability [33] [%]
CCCCCCCN(CC)CCCC(O)c1ccc(NS(C)(=O)=O)cc1.CCCCCCCN(CC)CCCC(O)c1ccc(NS(C)(=O)=O)cc1.O=C(O)/C=C/C(=O)O (stereo unspecified) | 117 | 112 | 126 | 126 | 114 | 126 | 127 | 108 | 122 | 112 | 102 | 94.3 | 108 | 105 | 99.8 | 107 | 106 | 97.1 | 107 | 101 | 107 | 110 | 110 | 114 | 107 | 100 | 99.9 | 124 | 103 | 109 | 114 | 112 | 90.3
Oc1ccc(-c2nc(-c3ccncc3)c(-c3ccc(F)cc3)[nH]2)cc1 | 99.7 | 113 | 122 | 117 | 125 | 135 | 147 | 121 | 19.1 | 2.63 | 1.72 | 100 | 106 | 106 | 112 | 116 | 135 | 150 | 125 | 118 | 18.4 | 1.54 | 105 | 124 | 126 | 110 | 122 | 133 | 136 | 128 | 130 | 36.8 | 1.72
CN1C(=O)C(=C/2N(C(=O)N(C3CC3)C(=O)C2=C1/NC4=CC=C(I)C=C4F)C5=CC=CC(=C5)NC(C)=O)\C | 117 | 134 | 113 | 99.3 | 83.4 | 61.1 | 52.3 | 41.1 | 10.8 | 7.05 | 6.86 | – | – | – | – | – | – | – | – | – | – | – | 117 | 135 | 124 | 92.7 | 81 | 63.8 | 55.1 | 49.6 | 27.6 | 9.59 | 6.9
COc1cc([C@@H]2c3cc4c(cc3[C@@H](O)C3COC(=O)C32)OCO4)cc(OC)c1O (stereo partly specified) | 88.8 | 100 | 101 | 37 | 94.3 | 53.1 | 37.9 | 45.9 | 30.5 | 30.3 | 28.2 | 81.3 | 95.6 | 85.7 | 17.6 | 92 | 82.7 | 20.5 | 22.1 | 19.7 | 20.3 | 19.6 | 88.1 | 95.3 | 91.5 | 32.1 | 90.8 | 73.3 | 25.7 | 26.2 | 22.9 | 23 | 22.3
NC/1=N/C(=O)C2=C([NH]C=C2CCC3=CC=C(C=C3)C(=O)N[C@@H](CCC(O)=O)C(O)=O)N1 | 107 | 99.2 | 110 | 104 | 107 | 116 | 78.2 | 46.2 | 41.8 | 38.8 | 29.7 | 88 | 92.2 | 103 | 94.2 | 96.2 | 94.4 | 93.9 | 112 | 92.5 | 78.9 | 75.5 | 104 | 91.4 | 96 | 105 | 103 | 104 | 103 | 86 | 40.5 | 40.1 | 38.3
CCC[S+](=O)([O-])Nc1ccc(F)c(C(=O)c2c[nH]c3ncc(-c4ccc(Cl)cc4)cc23)c1F | 124 | 112 | 113 | 116 | 143 | 132 | 108 | 99.7 | 108 | 116 | 93.2 | 101 | 113 | 112 | 103 | 117 | 113 | 106 | 120 | 112 | 111 | 98.9 | 113 | 116 | 112 | 129 | 109 | 112 | 121 | 107 | 108 | 112 | 94.5
Oc1ccc(C2CNCCc3c2cc(O)c(O)c3Cl)cc1 (stereo unspecified) | 91.8 | 106 | 93.7 | 106 | 107 | 101 | 85.3 | 106 | 115 | 103 | 115 | 86 | 90.1 | 81.7 | 96.5 | 93.6 | 80.7 | 90.7 | 96.3 | 85.8 | 90.3 | 87.4 | 84.1 | 95.9 | 98.2 | 95.6 | 99.9 | 94.3 | 95.7 | 93.4 | 95.2 | 101 | 88.5
Cc1ccccc1C(C(=O)NC1CCCC1)N(C(=O)Cn1cnc2ccccc21)c1cccc(F)c1 (stereo unspecified) | – | – | – | – | – | – | – | – | – | – | – | 118 | 114 | 127 | 105 | 125 | 107 | 113 | 121 | 108 | 110 | 99.8 | – | – | – | – | – | – | – | – | – | – | –
CC(=O)[C@H]1CC[C@H]2[C@@H]3C/C=C4/C[C@@H](O)CC[C@]4(C)[C@H]3CC[C@]12C | 129 | 121 | 125 | 115 | 131 | 129 | 138 | 123 | 119 | 104 | 108 | 121 | 113 | 119 | 111 | 116 | 117 | 109 | 121 | 110 | 111 | 119 | 121 | 118 | 139 | 128 | 129 | 114 | 132 | 121 | 118 | 116 | 97.7
O=C1C(CCC(O)c2ccc(F)cc2)C(c2ccc(O)cc2)N1c1ccc(F)cc1 (stereo unspecified) | 111 | 104 | 123 | 124 | 113 | 132 | 133 | 132 | 146 | 132 | 47.5 | 114 | 114 | 108 | 106 | 110 | 120 | 112 | 122 | 122 | 130 | 127 | 101 | 98.9 | 107 | 113 | 92.7 | 118 | 111 | 103 | 117 | 106 | 103
Cc1nc(N)sc1-c1ccnc(Nc2ccc(N3CCOCC3)cc2)n1 | 95.3 | 117 | 111 | 120 | 110 | 114 | 115 | 112 | 87 | 79.6 | 82.8 | 93.7 | 91 | 96.5 | 95.5 | 105 | 114 | 105 | 105 | 71.2 | 85.2 | 55.5 | 95.6 | 112 | 116 | 109 | 115 | 106 | 110 | 111 | 69.3 | 72.6 | 61.7
COC1=CC(=C2C(=O)N(COC/3=C/C(=O)N4\C=C/C=C(OCCN5CCCCC5)\C4=N3)[S+]([O-])(=O)C2=C1)C(C)C | – | – | – | – | – | – | – | – | – | – | – | 121 | 123 | 127 | 134 | 132 | 127 | 129 | 140 | 141 | 140 | 127 | – | – | – | – | – | – | – | – | – | – | –
CC(C)N(CCCNC(=O)Nc1ccc(C(C)(C)C)cc1)C[C@H]1O[C@@H](n2cc(Br)c3c(N)ncnc32)[C@H](O)[C@@H]1O | 98.3 | 101 | 112 | 84.5 | 105 | 106 | 110 | 95.1 | 85.4 | 71.4 | 9.86 | 80 | 96.3 | 88.7 | 87.8 | 86 | 80.8 | 92.2 | 80.9 | 94.2 | 73.8 | 31.8 | 86.4 | 81.3 | 93.6 | 105 | 90.1 | 86.3 | 81.6 | 82.2 | 90.5 | 68.8 | 26.2
NC(=O)c1c(OCc2c(F)cc(Br)cc2F)nsc1NC(=O)NCCCCN1CCCC1 | 89.9 | 108 | 91.4 | 82.3 | 76.8 | 87.6 | 107 | 79.8 | 67.6 | 18.5 | 21.5 | 123 | 116 | 115 | 116 | 112 | 105 | 111 | 103 | 103 | 66.6 | 85.7 | – | – | – | – | – | – | – | – | – | – | –
CO[C@H]1C[C@H]2OC[C@@]2(OC(C)=O)[C@H]3[C@H](OC(=O)C4=CC=CC=C4)[C@]5(O)C[C@H](OC(=O)[C@H](O)[C@@H](NC(=O)OC(C)(C)C)C6=CC=CC=C6)/C(=C(/[C@@H](OC)C(=O)[C@]13C)C5(C)C)C | 75.9 | 46 | 28.5 | 25.8 | 19.6 | 19.9 | 19.3 | 18.8 | 27.7 | 19.9 | 7.15 | 68.2 | 79.6 | 86.1 | 14.6 | 10.7 | 13.3 | 11.9 | 12.6 | 14.9 | 11 | 4.22 | 64.3 | 81 | 82.7 | 19 | 14.9 | 13.8 | 13.7 | 13.7 | 17.5 | 16.8 | 7.39
Cc1n[nH]c2ccc(-c3cncc(OC[C@@H](N)Cc4c[nH]c5ccccc45)c3)cc12 | – | – | – | – | – | – | – | – | – | – | – | 108 | 114 | 116 | 118 | 117 | 77.4 | 92.6 | 33.2 | 8.24 | 1.64 | 1.13 | 104 | 112 | 93.1 | 94.6 | 93.1 | 63.5 | 63.6 | 29.6 | 5.35 | 1.27 | 0.733

— the supplement of paper PMC11451515
